According to publication PMC6463675, “Panax ginseng Inhibits Metabolism of Diester Alkaloids by Downregulating CYP3A4 Enzyme Activity via the Pregnane X Receptor” (Evidence-based Complementary and Alternative Medicine : eCAM, 2019):

Assays:
PXR = system: PXR; parameters: method as in PMID 23600156; details: previous work of the authors; cited from earlier work
CYP3A4 [1] = test: Cocktail method: pharmacokinetics of probe drug midazolam after P. ginseng; details: rats, ketoconazole 40 mg·kg^−1 intraperitoneal 3 days, midazolam 10 mg·kg^−1 caudal vein
CYP3A4 [2] = biological target: T1, CYP3A4 (Homo sapiens, UniProt P08684); test: Specific inhibitor method in HLMs: ketoconazole; type: in vitro ADME; parameters: tissue Rild-biotech X008067; host or cells: human liver microsomes; details: alkaloid 20 μM, KEN 1 μM (specific inhibitor for CYP3A), 37°C 60 min, n = 3
Procedure: (§1) To screen the CYP isoforms for aconitine, mesaconitine, and hypaconitine metabolism, we used known inhibitors of the metabolism of aconitine, mesaconitine, and hypaconitine in HLMs. ANF (CYP1A2: 1 μM; CAS: […]), SPE (CYP2C9: 1 μM; CAS: 526-08-9), DDTC (CYP2E1: 1 μM; CAS: 148-18-5), and KEN (CYP3A4: 1 μM; CAS: 65277-42-1) were all from EFEBIO Co., Ltd., which were incubated separately with aconitine, mesaconitine, and hypaconitine (20 μM), HLMs, and NADPH under the same incubation conditions as mentioned above. […] The hepatic metabolism rate of the incubation solution with no inhibitor was used as the negative control. The HLM (Rild-biotech, shanghai, China, X008067 ) mixtures were incubated at 37°C for 60 min. NADPH was preincubated for 5 min before it was added to the system. Precooled acetonitrile/methanol (800 μL, 1:1, v/v) was added to stop the incubation. […] Aconitine, mesaconitine, and hypaconitine standards of different concentrations were added to the incubation system to obtain the standard curve.
Target sequence in this assay (P08684 whole entry, canonical isoform): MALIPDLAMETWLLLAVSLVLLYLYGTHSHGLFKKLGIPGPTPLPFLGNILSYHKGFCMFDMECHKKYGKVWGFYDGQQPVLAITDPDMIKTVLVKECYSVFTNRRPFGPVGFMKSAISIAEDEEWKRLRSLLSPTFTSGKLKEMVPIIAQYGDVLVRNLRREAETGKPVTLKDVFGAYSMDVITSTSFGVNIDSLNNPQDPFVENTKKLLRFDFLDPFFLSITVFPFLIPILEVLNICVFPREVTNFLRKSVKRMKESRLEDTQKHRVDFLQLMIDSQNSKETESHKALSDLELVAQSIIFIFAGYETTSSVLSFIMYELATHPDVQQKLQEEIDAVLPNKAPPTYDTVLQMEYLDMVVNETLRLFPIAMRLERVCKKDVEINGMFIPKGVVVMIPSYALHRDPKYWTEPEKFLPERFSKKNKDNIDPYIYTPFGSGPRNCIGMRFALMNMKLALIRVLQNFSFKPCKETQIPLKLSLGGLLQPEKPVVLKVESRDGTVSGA

CYP3A4 [3] = biological target: T1, CYP3A4; test: Kinetic analysis in recombinant human CYP3A4; type: in vitro ADME; parameters: purchased Corning 456202; host or cells: baculovirus infected insect cells (BTI-TN-5B1-4); details: for in vitro mean intrinsic clearance rate by CYP3A4: CLint = Vmax/KM
Description: (§2) Recombinant human cytochrome P450 enzymes were obtained from Corning (USA, CYP3A4:456202; CYP1A2:456203; CYP2C9:456218; CYP2E1:456206). The activity were catalyzed by CYP3A4/CYP1A2/CYP2C9/CYP2E1, which were expressed from human CYP3A4/CYP1A2/CYP2C9/CYP2E1 cDNA, respectively, using a baculovirus expression system. Baculovirus infected insect cells (BTI-TN-5B1-4) were used to prepare these microsomes. These microsomes also contain cDNA-expressed humans P450 reductase and human cytochrome b5. A microsome preparation using wild type virus (Catalog No. 456201) was used as a control for native activities.
(§3) The kinetic parameters for the metabolism of aconitine, mesaconitine, and hypaconitine were determined by incubating increasing concentrations of aconitine, mesaconitine, and hypaconitine (5, 10, 20, and 40 μM) at 37°C for 90min with recombinant human CYP isoforms and NADPH under the incubation conditions described above. Precooled acetonitrile/methanol (800 μL, 1:1, v/v) was added to stop the incubation.
(§4) The compound reaction velocity (V) is expressed as V = (C0 – Ct)/T/Cp, where C0 and Ct are the initial and final concentrations of aconitine, mesaconitine, or hypaconitine in the incubation solution, respectively, T is the incubation time (min), and Cp is the protein concentration (mg·mL^−1 or nmol). The mean intrinsic clearance rate (CLint) for the in vitro incubation was estimated using Vmax/KM, where Vmax is the maximum velocity and KM is the Michaelis constant. All values are expressed as the mean ± standard deviation (SD).
Target sequence in this assay (P08684 2-503 limits assumed): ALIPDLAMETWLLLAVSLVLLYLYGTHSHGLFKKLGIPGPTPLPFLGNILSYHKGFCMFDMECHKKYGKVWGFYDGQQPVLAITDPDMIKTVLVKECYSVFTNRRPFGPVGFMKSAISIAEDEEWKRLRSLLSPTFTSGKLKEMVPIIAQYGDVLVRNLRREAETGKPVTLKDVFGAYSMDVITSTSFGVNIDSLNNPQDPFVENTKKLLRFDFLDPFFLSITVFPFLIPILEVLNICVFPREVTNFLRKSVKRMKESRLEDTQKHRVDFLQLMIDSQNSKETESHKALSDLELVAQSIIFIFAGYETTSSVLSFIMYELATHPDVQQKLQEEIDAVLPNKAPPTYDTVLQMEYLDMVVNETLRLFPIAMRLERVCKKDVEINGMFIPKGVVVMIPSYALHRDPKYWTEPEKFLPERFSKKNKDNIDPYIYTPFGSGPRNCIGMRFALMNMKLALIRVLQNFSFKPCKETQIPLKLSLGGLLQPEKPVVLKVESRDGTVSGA

CYP2E1 = biological target: T2, CYP2E1 (Homo sapiens, UniProt P05181); test: Specific inhibitor method in HLMs: diethyldithiocarbonate; type: in vitro ADME; details: alkaloid 20 μM, DDTC 1 μM (CYP2E1), 37°C 60 min, P > 0.05
T2 construct: tissue Rild-biotech X008067; host or cells: human liver microsomes
Procedure: as §1

CYP3A4 [4] = system: CYP3A4; parameters: method as in PMID 23600156; details: concentration-dependent manner; cited from earlier work
recombinant human CYP1A2 = biological target: T3, recombinant human CYP1A2 (Homo sapiens, UniProt P05177); test: Kinetic analysis in recombinant human CYP1A2; type: in vitro ADME; details: substrate 5, 10, 20, 40 μM, 37°C 90 min, n = 3
T3 construct: purchased Corning 456203; host or cells: baculovirus infected insect cells (BTI-TN-5B1-4)
T3 sequence (P05177 2-516 limits assumed): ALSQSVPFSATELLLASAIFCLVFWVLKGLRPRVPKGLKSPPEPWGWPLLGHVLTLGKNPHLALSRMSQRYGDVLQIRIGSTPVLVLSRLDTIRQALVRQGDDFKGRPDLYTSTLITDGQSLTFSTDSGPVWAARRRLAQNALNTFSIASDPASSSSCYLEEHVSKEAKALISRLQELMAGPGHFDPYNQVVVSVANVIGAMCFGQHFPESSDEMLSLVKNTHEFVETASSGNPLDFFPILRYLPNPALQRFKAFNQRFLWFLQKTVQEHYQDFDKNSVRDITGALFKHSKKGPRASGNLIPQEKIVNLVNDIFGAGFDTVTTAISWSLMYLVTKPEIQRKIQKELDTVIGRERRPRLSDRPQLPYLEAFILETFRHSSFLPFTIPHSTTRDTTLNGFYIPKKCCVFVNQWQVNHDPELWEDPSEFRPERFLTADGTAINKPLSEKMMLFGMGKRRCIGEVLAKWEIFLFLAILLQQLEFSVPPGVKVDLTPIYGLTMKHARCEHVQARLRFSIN
Description: as §2, §3
as §4, with “The mean intrinsic clearance rate (CLint) for the in vitro incubation was estimated using Vmax/KM, where Vmax is the maximum velocity and KM is the Michaelis constant.” left out

[5] = recombinant human CYP3A4, substrate 5, 10, 20, 40 μM, 37°C 90 min, n = 3

T2 sequence (P05181 whole entry): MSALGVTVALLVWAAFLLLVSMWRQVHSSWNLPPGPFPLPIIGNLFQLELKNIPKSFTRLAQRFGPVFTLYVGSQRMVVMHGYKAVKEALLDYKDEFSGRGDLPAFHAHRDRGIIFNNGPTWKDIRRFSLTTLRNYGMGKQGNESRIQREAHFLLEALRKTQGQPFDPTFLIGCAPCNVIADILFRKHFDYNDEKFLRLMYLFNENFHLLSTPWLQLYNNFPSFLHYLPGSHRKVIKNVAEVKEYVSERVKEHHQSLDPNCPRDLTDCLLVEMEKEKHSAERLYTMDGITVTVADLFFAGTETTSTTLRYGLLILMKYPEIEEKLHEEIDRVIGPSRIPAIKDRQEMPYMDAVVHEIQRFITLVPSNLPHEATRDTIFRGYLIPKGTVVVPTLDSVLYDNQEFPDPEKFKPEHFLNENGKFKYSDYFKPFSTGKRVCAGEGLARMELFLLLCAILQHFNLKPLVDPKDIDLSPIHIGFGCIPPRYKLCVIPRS

Compound: CC(C)=CCCC(C)(O)[C@H]1CC[C@]2(C)[C@@H]1[C@H](O)C[C@@H]1[C@@]3(C)CC[C@H](O)C(C)(C)[C@@H]3CC[C@]12C (stereo in doubt) [protopanaxadiol]
- Effect on PXR (PXR): no obvious effects

Compound: CC(C)=CCC[C@](C)(O[C@@H]1O[C@H](CO)[C@@H](O)[C@H](O)[C@H]1O)[C@H]1CC[C@]2(C)[C@@H]1[C@H](O)C[C@@H]1[C@@]3(C)CC[C@H](O[C@@H]4O[C@H](CO)[C@@H](O)[C@H](O)[C@H]4O)C(C)(C)[C@@H]3CC[C@]12C [Ginsenoside F2]
- Effect on PXR (PXR): moderate inductive effects

Compound: CC(=O)N1CCN(c2ccc(OCC3COC(Cn4ccnc4)(c4ccc(Cl)cc4Cl)O3)cc2)CC1 (stereo not drawn) [Ketoconazole]
- AUC(0-t) of midazolam (CYP3A4 [1]; control 2.23 ± 0.64): 4.19 ± 0.14^∗∗ mg^.L^-1.h
- AUC(0-∞) of midazolam (CYP3A4 [1]; control 2.30 ± 0.59): 4.25 ± 0.15^∗∗ mg^.L^-1.h
- CLz of midazolam (CYP3A4 [1]; control 4.66 ± 1.43): 2.36 ± 0.08^∗∗ L^.h^-1.kg^−1
- Cmax of midazolam (CYP3A4 [1]; control 4.84 ± 1.89): 10.48 ± 0.63^∗∗ mg^.L^−1

Compound: CC1(C)CCC[C@](C)([C@H]2CC[C@]3(C)[C@@H]2[C@H](O)C[C@@H]2[C@@]4(C)CC[C@H](O)C(C)(C)[C@@H]4[C@@H](O)C[C@]23C)O1 [Panaxotriol]
- Effect on PXR (PXR): inhibitory effects

Compound: CC(C)=CCC[C@](C)(O)[C@H]1CC[C@]2(C)[C@@H]1[C@H](O)C[C@@H]1[C@@]3(C)CC[C@H](O[C@@H]4O[C@H](CO)[C@@H](O)[C@H](O)[C@H]4O[C@@H]4O[C@H](CO)[C@@H](O)[C@H](O)[C@H]4O)C(C)(C)[C@@H]3CC[C@]12C [Rg3]
- Effect on PXR (PXR): no obvious effects

Compound: CC(C)=CCC[C@](C)(O)[C@H]1CC[C@]2(C)[C@@H]1[C@H](O)C[C@@H]1[C@@]3(C)CC[C@H](O[C@@H]4O[C@H](CO)[C@@H](O)[C@H](O)[C@H]4O)C(C)(C)[C@@H]3CC[C@]12C [Rh2]
- Effect on PXR (PXR): no obvious effects

Compound: CCN1C[C@]2(COC)[C@H](O)C[C@H](OC)[C@@]34[C@@H]5C[C@@]6(O)[C@H](OC(=O)c7ccccc7)[C@@H]5[C@@](OC(C)=O)([C@@H]([C@H](OC)[C@H]23)[C@@H]14)[C@@H](O)[C@@H]6OC [aconitine]
- Hepatic metabolism rate when incubated with KEN, compared with negative control (CYP3A4 [2]): 60.37 ± 5.01%
- Km at 90 min (CYP3A4 [3]; human): 10.1 ± 3.26 µM
- in vitro mean intrinsic clearance rate by CYP3A4 (CYP3A4 [3]; recombinant human CYP3A4): 0.0119 mL·nmol CYP^−1·min^−1
- Vmax of CYP3A4 (CYP3A4 [3]; [5]): 0.12 ± 0.01 nmol·mg protein^−1·min^−1
- Hepatic metabolism rate after incubation with DDTC, compared with control (CYP2E1): no significant change

Compound: CC(C)=CCC[C@](C)(O[C@@H]1O[C@H](CO[C@@H]2OC[C@@H](O)[C@H](O)[C@H]2O)[C@@H](O)[C@H](O)[C@H]1O)[C@H]1CC[C@]2(C)[C@@H]1[C@H](O)C[C@@H]1[C@@]3(C)CC[C@H](O[C@@H]4O[C@H](CO)[C@@H](O)[C@H](O)[C@H]4O[C@@H]4O[C@H](CO)[C@@H](O)[C@H](O)[C@H]4O)C(C)(C)[C@@H]3CC[C@]12C [ginsenoside Rb3]
- Effect on PXR (PXR): inhibitory effects

Compound: CC(C)=CCC[C@](C)(O[C@@H]1O[C@H](CO)[C@@H](O)[C@H](O)[C@H]1O)[C@H]1CC[C@]2(C)[C@@H]1[C@H](O)C[C@@H]1[C@@]3(C)CC[C@H](O)C(C)(C)[C@@H]3[C@@H](O[C@@H]3O[C@H](CO)[C@@H](O)[C@H](O)[C@H]3O)C[C@]12C [ginsenoside Rg1]
- Effect on PXR (PXR): inhibitory effects
- CYP3A4 mRNA expression (CYP3A4 [4]): downregulated

Compound: CC(C)=CCC[C@](C)(O)[C@H]1CC[C@]2(C)[C@@H]1[C@H](O)C[C@@H]1[C@@]3(C)CC[C@H](O)C(C)(C)[C@@H]3[C@@H](O[C@@H]3O[C@H](CO)[C@@H](O)[C@H](O)[C@H]3O[C@@H]3O[C@@H](C)[C@H](O)[C@@H](O)[C@H]3O)C[C@]12C [ginsenoside Rg2]
- Effect on PXR (PXR): inhibitory effects

Compound: COC[C@@]12CC[C@H](OC)[C@]34C(C([C@H](OC)[C@H]13)[C@]1(OC(C)=O)[C@H]3[C@@H](OC(=O)c5ccccc5)[C@](O)(C[C@H]34)[C@@H](OC)[C@@H]1O)N(C)C2 [hypaconitine]
- Hepatic metabolism rate when incubated with KEN, compared with negative control (CYP3A4 [2]): 10.11 ± 6.19%
- in vitro mean intrinsic clearance rate by CYP3A4 (CYP3A4 [3]; recombinant human CYP3A4): 0.0091 mL·nmol CYP^−1·min^−1
- Hepatic metabolism rate after incubation with DDTC, compared with control (CYP2E1): no significant change

Compound: COC[C@]12CN(C)[C@@H]3[C@@H]4[C@H](OC)[C@H]1[C@@]3([C@@H](OC)C[C@H]2O)[C@@H]1C[C@@]2(O)[C@H](OC(=O)c3ccccc3)[C@@H]1[C@]4(OC(C)=O)[C@@H](O)[C@@H]2OC [mesaconitine]
- Hepatic metabolism rate when incubated with KEN, compared with negative control (CYP3A4 [2]): 21.67 ± 19.64%
- Vmax of CYP1A2 (recombinant human CYP1A2): 0.27 ± 6.57 nmol·mg protein^−1·min^−1
- in vitro mean intrinsic clearance rate by CYP3A4 (CYP3A4 [3]; recombinant human CYP3A4): 0.0056 mL·nmol CYP^−1·min^−1
- Km (CYP3A4 [3]; [5]): 131 ± 99.7 µM
- Vmax of CYP3A4 (CYP3A4 [3]; [5]): 0.73 ± 0.44 nmol·mg protein^−1·min^−1
- Hepatic metabolism rate after incubation with DDTC, compared with control (CYP2E1): no significant change

Compound: CC(C)=CCC[C@](C)(O)[C@H]1CC[C@]2(C)[C@@H]1[C@H](O)C[C@@H]1[C@@]3(C)CC[C@H](O)C(C)(C)[C@@H]3[C@@H](O)C[C@]12C [protopanaxatriol]
- Effect on PXR (PXR): moderate inductive effects

Compound: ginsenoside Rf1
- Effect on PXR (PXR): no obvious effects

Compound: pseudoginsenoside F11
- Effect on PXR (PXR): inhibitory effects
